Patent publication US8865653B2, “Method of treatment for immunogenic treatment resistant cancer” (Institut Gustave Roussy, priority 2010, dated 2014)

Legend:
[1] = system: CT26 (siATG5, siATG6, siATG7); experiment: Prophylactic immunization with autophagy-deficient dying CT26 cells ± apyrase inhibitor; assay type: in vivo; conditions: anthracycline-treated cells injected s.c., immunocompetent mice
Procedure: One million CT26 knock down with small interfering RNA specific for ATG5, ATG6 (Beclin 1 BCN1), or ATG7 or controls siCO were treated with the anthracyclin mitoxanthrone (MTX) for 18 hours, washed and inoculated in one flank of a naïve animal (BALB/C mouse). Positive controls are CT26 treated with MTX and negative controls are CT26 treated with PBS. Ten days later, mice were rechallenged with 3× the minimal tumorigenic dose of live CT26 cells on the opposite flank and monitoring of tumor growth was recorded with a caliper (product of perpendicular diameters). The % of tumor free animals are shown in the graph and the number of animals per group is indicated (n=20). Statistical analyses were performed with Anova test (Fisher's exact method) with significant results at p<0.05.
Idem as in FIG. 40 but the dying cells (siCO or siATG7) were admixed (or not) with apyrase inhibitors (AI) (apyrases are enzymes hydrolyzing ATP in the extracellular milieu) and/or suramine (SUR) or oxidized ATP (OXY), both inhibitors of purinergic receptors at the conventional dosing (previously reported). The % of tumor free animals are shown in the graph and the number of animals per group is indicated (n=20). Statistical analyses were performed with Anova test (Fisher's exact method) with significant results at p<0.05.

[2] = system: CT26 (ATG5 or ATG7 knock down, WT); experiment: Chemotherapy of established autophagy-deficient CT26 tumors ± apyrase inhibitor; assay type: in vivo, mice
Procedure: One million CT26 knock down with small interfering RNA specific for ATG5 or ATG7 or controls WT were treated with the anthracyclin mitoxanthrone (MTX) at 8 days post-implantation in one flank of a naïve animal (BALB/C mouse). […] Monitoring of tumor growth was recorded with a caliper (product of perpendicular diameters) and is depicted for 5 mice/group. Statistical analyses were performed with Anova test (Fisher's exact method) with significant results at p<0.05.

[3] = system: MCA205; experiment: Pro-apoptotic effect on MCA205, DiOC6(3) fluorescence; assay type: cell-based, mouse; conditions: alone or in combination with anthracyclines (DX, MTX)
Procedure: (B) The impact of AHR pharmacological inhibitor CH-223191 on pro-apoptotic effect of DX or MTX against MCA205 was measured. A reduction in mitochondrial membrane potential indicated by decreased DiOC6(3) fluorescence was used to show cell apoptosis. The experiment was performed twice with identical results.

[4] = system: MCA205 sarcoma; experiment: Anthracycline chemotherapy of established MCA205 sarcoma (intratumoral DX); assay type: in vivo, mice; conditions: CH-223191 daily i.p. for 4 days from day of DX
Procedure: 0.8 million MCA205 or CT26 or TS/A tumor cells were inoculated subcutaneously near the thigh into C57Bl/6 (H-2^b) or BALB/c (H-2^d) mice. Anthracyclines-based chemotherapy was performed in MCA205 and CT26 models by intratumoral injecting DX (2 mM, […]) when tumors reached the size 25-40 mm^2. Radiotherapy was performed by local X-ray irradiation (10 Gy, RT250, Phillips) at the unshielded tumor area when TS/A tumor reached the size 40-60 mm^2.

[5] = molecular target: AHR (Homo sapiens, UniProt P35869); conditions: pure antagonist of AHR; cited from earlier work
[6] = system: CT26 overexpressing LC3-GFP; experiment: Induction of autophagy in vivo, LC3-GFP redistribution; design: species or system mice; conditions: i.v., tumors withdrawn 48 hours post-therapy
Procedure: After 8 days of tumor implantation (CT26 mouse colon cancer genetically modified to overexpress LC3-GFP in BALB/c immunocompetent mice), oxaliplatin or mitoxanthrone was inoculated systemically (i.v.). Tumors were withdrawn at 48 hours post-therapy and immunofluorescence stainings were performed on frozen sections of tumor tissues to visualize nuclei (in Hoechst blue), and autophagosomes in green (LC3-GFP). […] The lower panel is a graph summarizing enumeration of autophagosomes positive cells in 10 independent sections per tumor and animal (each dot represents one tumor). Statistical analyses were performed with Anova test (Fisher's exact method) with significant results at p<0.05.

[7] = system: MCA205; experiment: Tumor vaccination with MTX-treated MCA205 and rechallenge; assay type: in vivo; conditions: s.c. injection of MTX treated MCA205 cells, WT mice (not athymic nude mice)
Procedure: MCA205 cells were treated with 2 μM MTX for 18 hrs, washed thoroughly and injected into left flank subcutaneously at 0.3 million/mouse. PBS was used as control. Mice were rechallenged with 5×10^4 live MCA205 cells in the right flank 7 days later. Tumor growth was monitored every 2-3 days.

[8] = system: U2OS cells; experiment: US Drug library screen: CRT-GFP, HMGB1-GFP, quinacrine; conditions: 1 μM, 4 h / 24 h / 16 h
[9] = system: U2OS cells stably expressing CRT-GFP; experiment: CRT-GFP redistribution (granularity, nuclear shape) by automated microscopy; ICCB library screen; assay type: cell-based, human; conditions: for CRT-GFP granularity (relocation to peripheral granular distribution): 1 μM MTX, 150 μM CDDP, 300 μM OXP; for CRT-GFP granularity / CRT exposure in library screen in the presence vs absence of CDDP: ICCB library, 4 h, with CDDP
Procedure: The data is depicted as mean±s.e.m. of quadruplicates from a representative experiment. (C) Immunofluorescene was conducted on CRT-GFP expressing cells by means of staining with anti-CRT antibody and subsequent confocal image acquisition. (D) CRT has been cloned in frame n-terminal to a HaloTag® sequence followed by a KDEL ER retention signal. (E) The impermeable HaloTag® ligand forms covalent bonds exclusively with surface exposed HaloTag®-CRT fusion protein, whereas intracellular HaloTag®-CRT remains undetected.
Compounds from the ICCB known bioactive compounds library have been tested for their capacity to induce CRT-exposure. […] The cells were incubated for 4 h and were acquired by means of automated microscopy. The data is depicted as dot plots and representative images (B).
After washing with PBS 4 viewfields per well were acquired by means of a BD pathway 855 automated microscope.

[10] = system: MCA205 cells; experiment: In vivo anti-tumor vaccination with MitoC / Digoxin treated MCA205 cells; design: species or system mice; conditions: 20 μM MitoC
[11] = system: CT26 and MCA cells; experiment: CRT exposure in single or cotreated cells (MitoC, cardiac glycosides); assay type: cell-based, mouse
Procedure: (B) CRT exposure was analysed in the cells that were single or cotreated as indicated by means of CRT surface staining and FACS quantification.

[12] = system: MCA205 cells; experiment: In vivo anti-tumor vaccination with treated MCA205 cells (Example 3)
Procedure: (F) MCA205 cells have been used for tumor vaccination in vivo. […] The mice have been rechallenged after 6 days with living cells and the tumor growth is depicted in the survival plot (n=10).
Tumor growth was evaluated for at least 50 days.

[13] = system: U2OS cells; experiment: ATP release assays (quinacrine, luciferin-based); assay type: cell-based, human; conditions: 16 h post-treatment, intracellular and extracellular ATP
Procedure: In short, cells were labeled with 1 μM quinacrine in Krebs-Ringer solution (125 mM NaCl, 5 mM KCl, 1 mM MgSO4, 0.7 mM KH2PO4, 2 mM CaCl2, 6 mM glucose and 25 mM Hepes, pH 7.4) for 30 min at 37° C.
After incubation in quinacrine solution (as described above), cells were rinsed and resuspended in PBS containing 1 μg/ml PI. The samples were analyzed by means of a FACS Vantage (Becton Dickinson) and the data was statistically evaluated using the CellQuest Pro software (BD Biosciences).
After cell death induction, extracellular ATP was measured by luciferin-based ENLITEN ATP Assay (Promega, Madison, USA) following the manufacturer's instructions. Intracellular ATP was measured using an ATP Assay kit (Calbiochem, Darmstadt, Germany) based on luciferin-luciferase conversion following the manufacturer's instructions. For assessment of the chemoluminescent signal, the plates were read in a Fluostar luminometer (BMG Labtech).

[14] = system: eIF2α; experiment: Immunoblotting of eIF2α / PERK phosphorylation; assay type: cell-based
Text: (E) The phosphorylation status of eIF2α has been assessed by immunoblotting against the phosphoneoepitope Ser51 of eIF2α by means of a monoclonal antibody. A polyclonal antibody has been used to visualize whole eIF2α protein levels.

[15] = system: U2OS cells; experiment: Analysis of surface exposed CRT (HaloTag ligand, anti-CRT immune staining)
[16] = system: U2OS cells; assay type: cell-based
Procedure: The data is depicted as representative images (A) and (B) normalized Bax-GFP granularity values.
The data represents mean±s.e.m. of quadruplicates from a representative experiment. […] 16 h after treatment, cell death was monitored by simultaneous staining with 3,3 dihexyloxacarbocyanine iodide (DiOC6(3)) and propidium iodide (PI), and the percentage of dying (DiOC6(3)^low PI^−, open bars) and dead (DiOC6(3)^low PI^+, closed bars) cells was determined by cytofluorometry.
Cell death was quantified by cytofluorometric analysis using a FACS Vantage (Becton Dickinson, Mountain View, USA) as described previously (REF). Thus, cells were stained with 40 nM 3,3 dihexyloxacarbocyanine iodide (DiOC6(3); Molecular Probes, Eugene, Oreg., USA) for 30 min at 37° C. and concomitantly with 1 μg/ml propidium iodide (PI; Sigma Aldrich) for 30 min at 37° C. to determine the mitochondrial transmembrane potential. Data were statistically evaluated using CellQuest Pro software (Becton Dickinson, Mountain View, USA).

[17] = system: EL4 thymoma; experiment: Chemotherapy and Dendrophilin treatment of established EL4 tumors; assay type: in vivo, mice; conditions: oxaliplatin 5 mg per kg i.p.
Procedure: WT or loss-of-function mice were injected in the right flank with 1×10^6 of EL4 or CT26 or MCA205 cells. Mice were then randomly assigned into treatment groups of 4-6 mice each. […] Two and/or four days after chemo treatment, mice were treated with Dendrophilin or LPS (2 μg in 100 μl NaCl per mouse i.v or i.t). […] Tumor growths were monitored every 3-4 days using a caliper.

[18] = system: MCA205 cells; conditions: Martins I et al, Oncogene 2010; cited from earlier work
[19] = MTX at 8 days post-implantation

Sequence of AHR (P35869 11-848, species assumed): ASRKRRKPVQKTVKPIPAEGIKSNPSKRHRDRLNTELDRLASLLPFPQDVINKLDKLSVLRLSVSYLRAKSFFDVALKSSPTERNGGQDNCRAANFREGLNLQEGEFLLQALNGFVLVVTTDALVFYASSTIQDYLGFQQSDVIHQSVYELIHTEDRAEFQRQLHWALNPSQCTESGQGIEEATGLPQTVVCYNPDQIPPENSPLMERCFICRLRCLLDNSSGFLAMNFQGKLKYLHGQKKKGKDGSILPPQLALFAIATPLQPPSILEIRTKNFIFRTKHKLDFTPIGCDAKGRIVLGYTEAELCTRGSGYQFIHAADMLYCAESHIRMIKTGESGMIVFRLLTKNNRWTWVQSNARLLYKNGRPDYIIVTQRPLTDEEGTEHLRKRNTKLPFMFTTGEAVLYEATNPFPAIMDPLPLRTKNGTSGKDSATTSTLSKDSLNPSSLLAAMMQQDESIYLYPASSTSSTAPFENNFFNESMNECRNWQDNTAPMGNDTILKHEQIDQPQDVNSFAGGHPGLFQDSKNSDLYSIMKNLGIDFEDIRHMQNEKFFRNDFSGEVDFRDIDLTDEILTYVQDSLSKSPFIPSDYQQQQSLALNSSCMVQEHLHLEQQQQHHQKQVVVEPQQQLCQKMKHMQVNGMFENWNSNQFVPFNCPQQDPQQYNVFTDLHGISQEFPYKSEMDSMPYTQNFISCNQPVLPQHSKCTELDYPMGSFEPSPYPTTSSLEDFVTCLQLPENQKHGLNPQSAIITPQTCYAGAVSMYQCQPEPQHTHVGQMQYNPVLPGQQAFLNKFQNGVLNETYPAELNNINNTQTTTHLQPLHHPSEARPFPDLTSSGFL

CCN(CC)c1ncnc2c1ncn2C1OC(COP(=O)(O)OP(=O)(O)C(Br)(Br)P(=O)(O)O)C(O)C1O [ARL67156, 6-N,N-Diethyl-D-beta-gamma-dibromomethylene adenosine triphosphate]
immunogenicity of autophagy-deficient dying tumour cells with co-injected apyrase inhibitor [1]: defect in immunogenicity can be restored
response of autophagy-deficient tumours to anthracycline chemotherapy with intratumoural apyrase inhibitor ([2]; tumours established for 8 days): defect is again overcome

Cc1ccccc1N=Nc1ccc(NC(=O)c2ccnn2C)c(C)c1 [CH-223191, 2-methyl-2H-pyrazole-3-carboxylic acid (2-methyl-4-o-tolylazo-phenyl)-amide]
cell-autonomous effects on the tumor cells [3]: no cell-autonomous effects on the tumor cells
effect on efficacy of DX on established cancers in vivo [4]: markedly reduced the efficacy of DX
concentration up to which no AHR agonist actions [5]: > 100 µM

O=C1c2c(O)ccc(O)c2C(=O)c2c(NCCNCCO)ccc(NCCNCCO)c21 [MTX, mitoxantrone]
redistribution of LC3-GFP in autophagosomes in tumors [6]: Redistribution of LC3-GFP in autophagosomes can be visualized post-therapy
protection against rechallenge with live MCA205 tumor cells [7]: could protect WT mice
rank in screen for exposing CRT and emitting HMGB1 and ATP [8]: most potent in exposing CRT, and emitting HMGB1 and ATP
CRT-GFP granularity (relocation to peripheral granular distribution) [9]: only observed after treatment of the cells with MTX or OXP
growth of ATG5 and ATG7 deficient tumors under MTX [2, 19]: not controlled by MTX therapy
growth of CT26 WT tumors under MTX [2, 19]: significantly respond

CO[C@@]12[C@H](COC(N)=O)C3=C(C(=O)C(C)=C(N)C3=O)N1C[C@@H]1N[C@@H]12 [MitoC, mitomycin C]
vaccinating effect, MitoC alone [10]: failed to confer any vaccinating effect
CRT exposure, MitoC by its own [11]: incapable of exposing CRT

O=C1[O][Pt]2([NH][C@@H]3CCCC[C@H]3[NH]2)[O]C1=O [OXP, oxaliplatin]
protective anticancer immune response after vaccination with drug-treated MCA205 cells ([12]; s.c. injection, rechallenge with live tumor cells): readily induce such a tumor-protective response
ATP release [13]: induced ATP release
redistribution of LC3-GFP in autophagosomes in tumors [6]: Redistribution of LC3-GFP in autophagosomes can be visualized post-therapy
eIF2α phosphorylation on serine 51 ([14]; phospho-neoepitope-specific antibody): much more efficient than CDDP
activating phosphorylation of PERK ([14]; shortly after treatment): detectable shortly after treatment with OXP
surface exposure of CRT-HaloTag ([15]; cell-impermeable HaloTag ligand, microscopy and cytofluorometry): unless they were treated with immunogenic cell death inducers such as OXP
surface immunofluorescence staining of CRT ([15]; non-permeabilized CRT-GFP cells): actually extruded CRT
IC50 ([16]; short-term experiments, loss of the mitochondrial transmembrane potential ΔΨm, read-out: IC50, imminent cell death): ~600 µM
mitochondrial perturbations (ΔΨm dissipation, Bax-GFP relocation) ([16]; used at their IC50): induced similar mitochondrial perturbations
CRT-GFP granularity (relocation to peripheral granular distribution) [9]: only observed after treatment of the cells with MTX or OXP
antitumor effects of chemotherapy alone [17]: only mild effects

C/C=C(/C)C(=O)O[C@H]1C(C)=C2[C@H]([C@@H]1OC(=O)CCCCCCC)[C@@](C)(OC(C)=O)C[C@H](OC(=O)CCC)[C@@]1(O)[C@H]2OC(=O)[C@@]1(C)O [THAPS, thapsigargin]
anticancer immune response, vaccine of dying cells generated with CDDP combined with THAPS ([12]; MCA205, rechallenge with live cells): elicited an effective anticancer immune response in vivo
CRT-GFP granularity, CRT-HaloTag exposure, native CRT exposure, THAPS alone ([15]; in the absence of CDDP): comparably inefficient
CRT-GFP granularity, CRT-HaloTag exposure, native CRT exposure, THAPS with CDDP ([15]; in the presence of CDDP): highly efficient in the presence of CDDP
immunogenic cell death when combined with cisplatin [18]: could induce immunogenic cell death when combined with cisplatin
cytotoxic effects [16]: exhibited no major cytotoxic effects
effect on toxicity of CDDP [16]: did not increase the toxicity of CDDP
CRT-GFP granularity / CRT exposure in library screen in the presence vs absence of CDDP [9]: particularly efficient in inducing CRT-GFP granularity in the presence (but not in the absence) of CDDP
CRT-GFP granularity / CRT exposure in library screen in the presence vs absence of CDDP ([9]; listed as thapsigargin): the sole agent (out of 450 compounds) to induce CRT exposure in the presence of cisplatin but not in the absence of cisplatin
